Measured values published in US11623929B2, “Spirocyclic compounds” (C4 Therapeutics, Inc., priority 2018, dated 2023).

The compounds below were run against h-Cereblon_DDB1 (hCereblon(M1-L442)_hDDB1(M1-H1140)) (Homo sapiens (Human), UniProt Q96SW2) (assay: Fluorescence direct binding (tryptophan fluorescence titration)). Details: 20° C., excitation 280 nm, emission 340 nm, assay buffer 50 mM Hepes 7.4 200 mM NaCl, protein 5.0 E−8 M; read-out: Fluorescence h-Cereblon_DDB1 Mean Kd_EQ.
Chain of h-Cereblon_DDB1 (hCereblon(M1-L442)_hDDB1(M1-H1140)) (Q96SW2 whole entry): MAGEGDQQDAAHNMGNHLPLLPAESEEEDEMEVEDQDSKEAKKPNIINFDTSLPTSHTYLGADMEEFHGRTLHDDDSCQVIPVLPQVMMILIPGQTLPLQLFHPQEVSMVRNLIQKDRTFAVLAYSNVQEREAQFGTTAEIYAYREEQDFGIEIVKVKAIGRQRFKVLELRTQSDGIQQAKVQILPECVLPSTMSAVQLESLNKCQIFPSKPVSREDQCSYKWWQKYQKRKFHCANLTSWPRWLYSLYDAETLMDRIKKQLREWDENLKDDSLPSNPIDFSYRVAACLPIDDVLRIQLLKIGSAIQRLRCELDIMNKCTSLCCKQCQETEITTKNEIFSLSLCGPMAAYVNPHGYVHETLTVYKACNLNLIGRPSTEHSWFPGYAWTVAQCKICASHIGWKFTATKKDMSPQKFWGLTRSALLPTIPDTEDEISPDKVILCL
Chain of h-Cereblon_DDB1 (hCereblon(M1-L442)_hDDB1(M1-H1140)) (Q16531 whole entry partner): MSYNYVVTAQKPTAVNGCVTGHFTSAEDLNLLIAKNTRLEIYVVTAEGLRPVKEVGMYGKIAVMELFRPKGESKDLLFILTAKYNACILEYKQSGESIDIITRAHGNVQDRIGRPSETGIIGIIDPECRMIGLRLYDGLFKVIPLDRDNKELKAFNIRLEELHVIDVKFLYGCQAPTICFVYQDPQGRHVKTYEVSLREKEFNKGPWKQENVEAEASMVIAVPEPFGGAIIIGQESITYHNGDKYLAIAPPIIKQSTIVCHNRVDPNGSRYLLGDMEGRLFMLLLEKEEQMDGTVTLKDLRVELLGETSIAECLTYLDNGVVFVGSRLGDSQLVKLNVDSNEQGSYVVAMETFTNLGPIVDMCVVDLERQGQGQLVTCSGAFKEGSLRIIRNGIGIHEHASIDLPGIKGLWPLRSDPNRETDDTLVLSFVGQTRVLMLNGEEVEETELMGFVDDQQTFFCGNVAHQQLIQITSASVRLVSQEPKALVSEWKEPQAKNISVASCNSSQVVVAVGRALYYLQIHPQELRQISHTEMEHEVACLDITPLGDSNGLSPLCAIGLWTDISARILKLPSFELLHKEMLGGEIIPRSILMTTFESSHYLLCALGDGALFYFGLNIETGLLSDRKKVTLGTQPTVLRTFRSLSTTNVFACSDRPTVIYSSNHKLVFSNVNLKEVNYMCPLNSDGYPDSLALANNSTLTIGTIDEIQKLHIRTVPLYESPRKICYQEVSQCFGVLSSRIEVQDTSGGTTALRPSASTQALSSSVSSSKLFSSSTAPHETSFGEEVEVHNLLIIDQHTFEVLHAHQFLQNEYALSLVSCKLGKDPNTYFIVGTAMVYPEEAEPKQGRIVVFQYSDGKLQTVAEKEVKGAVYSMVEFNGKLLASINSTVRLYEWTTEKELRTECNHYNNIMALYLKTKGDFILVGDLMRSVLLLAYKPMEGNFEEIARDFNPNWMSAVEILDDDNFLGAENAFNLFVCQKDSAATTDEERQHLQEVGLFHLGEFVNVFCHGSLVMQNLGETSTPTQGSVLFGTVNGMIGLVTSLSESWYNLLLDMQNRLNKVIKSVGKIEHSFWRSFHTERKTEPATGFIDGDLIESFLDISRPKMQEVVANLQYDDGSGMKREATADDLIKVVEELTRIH
Description: Fluorescence Direct Binding Protocol
Determination of the affinities of compounds to protein containing one or more tryptophan is measurable by monitoring the fluorescence emission in direct mode. The measurements depending on the protein available amounts are performed either manually in a cuvette on ISS-PC1 photon counting spectrofluorometer or automatically in well plates on a fluorescence plate reader device. Fluorescence titrations are performed at 20° C. in the chosen binding assay buffer by using a defined constant protein concentration against ligand concentration variations. Small aliquots of known ligand concentration solubilized in DMSO were added and the fluorescence, excited at 280 nm, was recorded at 340 nm. The fluorescence intensity was corrected for protein dilution and for the filter effect (Birdsall, B., et al. (1983). Anal. Biochem. 132, 353-361). The corrected fluorescence intensity was plotted against the ligand concentration and fitted using a four-parameter sigmoidal function, from which the equilibrium dissociation constant Kd was computed using the law of mass action assuming a 1:1 protein-ligand complex (Eftink, Methods Enzymol. 1997; 278:221-57).
The Fluorescence Direct Binding Protocol Process includes:
• 1) Optimization of measurement parameters to minimize protein consumption and to minimize the dilution effect and the DMSO content • 2) Titration measurements of the protein against ligand by at least 12 titration steps to obtain a good s-curve fit • 3) Repeat the same titration measurements with the ligand alone to enable correction • 4) Check the stability of the protein once by titration against DMSO alone • 5) Determination of the molar extinction coefficients of the ligand at 280 and 340 nm with help of an UV-spectrophotometer • 6) Use Excel template for the correction of the measured raw data • 7) Use GraphPad Prism software for the quadratic binding fit and the KD evaluation.
`O=C1NC(=O)C2(CCN(C(=O)c3ccccc3)C2)N1` (stereo not drawn) [Example 1, 7-Benzoyl-1,3,7-triazaspiro[4.4]nonane-2,4-dione] gave a Kd of 4 nM.
`O=C1NC(=O)C2(CCN(C(=O)[C@H]3CCCc4ccccc43)C2)N1` (stereo partly drawn) [Example 2, 7-((S)-1,2,3,4-Tetrahydronaphthalene-1-carbonyl)-1,3,7-triazaspiro[4.4]nonane-2,4-dione] gave a Kd of 3 nM.
`O=C1NC(=O)C2(CCN(c3nc4ccccc4s3)C2)N1` (stereo not drawn) [Example 3, 7-(Benzo[d]thiazol-2-yl)-1,3,7-triazaspiro[4.4]nonane-2,4-dione] gave a Kd of 31 nM.
In the case of `O=C1NC(=O)C2(CCN(C(=O)c3cnn4ccccc34)C2)N1` (stereo not drawn) [Example 4, 7-(Pyrazolo[1,5-a]pyridine-3-carbonyl)-1,3,7-triazaspiro[4.4]nonane-2,4-dione], the Kd is reported as 37 nM.
`COC(=O)c1ccc(N2CCC3(C2)NC(=O)NC3=O)nc1` (stereo not drawn) [Example 5, Methyl 6-(2,4-dioxo-1,3,7-triazaspiro[4.4]nonan-7-yl)nicotinate] showed a Kd of 2 nM.
Work on `CC(=O)Nc1cccc(C(=O)N2CCC3(C2)NC(=O)NC3=O)c1` (stereo not drawn) [Example 6, N-(3-(2,4-Dioxo-1,3,7-triazaspiro[4.4]nonane-7-carbonyl)phenyl)acetamide] yielded a Kd of 10 nM.
`CC(=O)Nc1ccc(C(=O)N2CCC3(C2)NC(=O)NC3=O)cc1` (stereo not drawn) [Example 7, N-(4-(2,4-Dioxo-1,3,7-triazaspiro[4.4]nonane-7-carbonyl)phenyl)acetamide] was tested, and the Kd was 161 nM.
`O=C1NC(=O)C2(CCN(c3nc4ncccc4s3)C2)N1` (stereo not drawn) [Example 8, 7-(Thiazolo[4,5-b]pyridin-2-yl)-1,3,7-triazaspiro[4.4]nonane-2,4-dione] was tested, and the Kd was 7 nM.
`O=C1NC(=O)C2(CCN(C(=O)c3ccc4scnc4c3)C2)N1` (stereo not drawn) [Example 9, 7-(Benzo[d]thiazole-5-carbonyl)-1,3,7-triazaspiro[4.4]nonane-2,4-dione] was tested, and the Kd was 32 nM.
In the case of `COC(=O)c1ccc(N2CCC3(CC(=O)NC3=O)C2)nc1` (stereo not drawn) [Example 10, Methyl 6-(6,8-dioxo-2,7-diazaspiro[4.4]nonan-2-yl)nicotinate], the Kd is reported as 10 nM.
In the case of `O=C1CC2(CCN(c3nc4ccccc4s3)C2)C(=O)N1` (stereo not drawn) [Example 11, 7-(Benzo[d]thiazol-2-yl)-2,7-diazaspiro[4.4]nonane-1,3-dione], the Kd is reported as 18 nM.
`O=C1CC2(CCN(C(=O)c3cnn4ccccc34)C2)C(=O)N1` (stereo not drawn) [Example 12, 7-(Pyrazolo[1,5-a]pyridine-3-carbonyl)-2,7-diazaspiro[4.4]nonane-1,3-dione] gave a Kd of 6 nM.
In the case of `O=C1CC2(CCN(C(=O)c3ccccc3)C2)C(=O)N1` (stereo not drawn) [Example 13, 7-Benzoyl-2,7-diazaspiro[4.4]nonane-1,3-dione], the Kd is reported as 15 nM.
In the case of `O=C1NC(=O)C2(CCN(C(=O)c3ccc4scnc4c3)C2)N1` (stereo not drawn) [Example 14, 7-(Benzo[d]thiazole-5-carbonyl)-1,3,7-triazaspiro[4.4]nonane-2,4-dione], the Kd is reported as 26 nM.
In the case of `O=C1NC(=O)C2(CCN(C(=O)c3ccc4scnc4c3)C2)N1` (stereo not drawn) [Example 15, 7-(Benzo[d]thiazole-5-carbonyl)-1,3,7-triazaspiro[4.4]nonane-2,4-dione], the Kd is reported as 23 nM.
